One series relates to Yoshida sc. sarcoma. The series can be described thus: Comparison of the ED50 values on Yoshida sc. sarcoma of rats (transplanted solid tumor). In kind it is in vivo, rat. The conditions noted are these: for ED50: Rattus norvegicus, Yoshida sc. sarcoma of rats; for Relative activity: calculated by comparing the ED50 values. As for the experimental part:
(§1) Our tests were performed on various transplantable mouse and rat tumors. The following tumor strains were applied:
Rat: Yoshida sc. sarcoma
(§2) The tests were always performed on animals of both sexes. At the beginning of the tests the average body weight of mice was 20 to 22 g, whereas that of rats 150 to 180 g. The animals were kept in plastic cages and fed with a standard laboratory animal feed (LATI, Godollo, Hungary). The animals received water ad libitum.
(§3) Solid tumors were transplanted by a subcutaneous implantation of tumor chips. Ascites type tumors were transplanted with 10^7 cells received from the ascites, whereas leukaemia type tumors were transplanted with spleen suspension. The treatment of the animals was started 24 hours after transplantation, with the only exception of Harding-Passey melanoma, when treatment was started on the 4th day after transplantation.

The subject of series [1] is peripheral blood count (granulocytes, lymphocytes). The experiment in a line: Effect on peripheral blood count of rats (haematopoiesis). The conditions noted are these: reference substances; in words.
Series [2] relates to Walker sc. carcino-sarcoma. The series can be described thus: Tumor inhibiting effect on solid tumors: Walker sc. sarcoma. In kind it is in vivo, rat. To be noted: 10 mg/kg. Here is the method: as §1
Walker sc. carcino-sarcoma
as §2, §3
(§4) *Performed on groups of 8 animals

The subject of series [3] is S-180 sc. sarcoma. The series can be described thus: Tumor inhibiting effect on solid tumors: S-180 sc. sarcoma. The format is in vivo, mouse. Here is the method:
as §1
Mouse: SC-180 sc. sarcoma (solid)
as §2, §3, §4

A further series has as its system Harding-Passey melanoma. The experiment in a line: Tumor inhibiting effect on solid tumors: Harding-Passey melanoma. To be noted: treatment from 4th day after transplantation. The format is in vivo, mouse. As for the experimental part: as §1
Harding-Passey melanoma
as §2, §3, §4

Series [4] has as its system NK/Ly lymphoma. The series can be described thus: Tumor inhibiting effect on ascites type tumors: NK/Ly lymphoma. In kind it is in vivo, mouse. To be noted: 30 mg/kg, 4 × i.p. As for the experimental part:
as §1, §2, §3

For another series, the system named is Ehrlich asc. carcinoma. The series can be described thus: Tumor inhibiting effect on ascites type tumors: Ehrlich ascites carcinoma. The format is in vivo, mouse. As for the experimental part: as §1, §2, §3
Healing=tumor-free survival of 90 days after transplantation

Series [5] is described as follows: Acute toxicity (LD50) on CFLP and BDF1 mice. The conditions noted are these: mouse, in vivo. As for the experimental part:
(§5) The tests were performed on groups consisting of 10 mice (5 males and 5 females), and the animals were kept under observation for 3 weeks.

In series [6] the test system is CFLP and BDF1 mice. The experiment in a line: Acute toxicity (LD50) on CFLP and BDF1 mice. The conditions noted are these: in words. As for the experimental part: as §5
Series [7] relates to transplantable mouse and rat tumors. The series can be described thus: Cytostatic effect / growth inhibition on transplantable mouse and rat tumors (overall statements). In kind it is in vivo. To be noted: in words. As for the experimental part:
as §1, §2, §3

For series [8], the system named is Walker sc. carcino-sarcoma. To be noted: 100 mg/kg, 6 × i.p.; cited from earlier work.
The test system of series [9] is S-180 sc. sarcoma. The conditions noted are these: 200 mg/kg, 8 × i.p.; cited from earlier work.
Series [10] deals with NK/Ly lymphoma. To be noted: 125 mg/kg, 6 × i.p.; cited from earlier work.
The subject of series [11] is CFLP and BDF1 mice. To be noted: same animals, Nemeth et al. 1972, cited from earlier work.

Read-outs that look alike come from different tables or passages of the source.

On to `O[C@@H]([C@H](O)[C@H](O)CBr)[C@H](O)CBr` [1,6-dibromo-1,6-dideoxy-D-mannitol], for which the ED50 with Yoshida sc. sarcoma (ip) turned out to be 490 mg/kg; in the series on Yoshida sc. sarcoma (po), 170 mg/kg. In addition, the Relative activity in the series on Yoshida sc. sarcoma (i.p.) is given as 0.04; in the series with Yoshida sc. sarcoma (p.o.), 0.41. Further, the “effect on haematopoiesis (formation of myeloid leukocytes)” value in series [1] is “rather strong and selective action on the formation of myeloid leukocytes”.

Take `CO[C@@H]([C@H](OC)[C@H](O)COS(C)(=O)=O)[C@H](O)COS(C)(=O)=O` [compound of formula (I), 1,6-dimesyl-3,4-dimethyl-D-mannitol]: the ED50 came out at 20 mg/kg in the series with Yoshida sc. sarcoma (ip) and 70 mg/kg in the series on Yoshida sc. sarcoma (po). In addition, the Inhibition was found to be 90 in [2] (5 × i.p.); 97 in series [2] (5 × p.o.); 50 in the series on S-180 sc. sarcoma [3] (100 mg/kg, 4 × p.o.); 70 with S-180 sc. sarcoma [3] (200 mg/kg, 6 × p.o.); 31 with Harding-Passey melanoma (30 mg/kg, 10 × p.o.); 52 with Harding-Passey melanoma (100 mg/kg, 10 × p.o.). The “Prol. of life span” value stood at 101% in the series on NK/Ly lymphoma [4] and 99.6% with Ehrlich asc. carcinoma (100 mg/kg, 4 × i.p.). Also, the “effect on Ehrlich ascites tumor” value in the series with Ehrlich asc. carcinoma (in words) is listed as “healing effect”. Moreover, the LD50 at 504 h in [5] (ip) was 1000 mg/kg; in [5] (po), 1100 mg/kg. Further, the toxicity entry with CFLP and BDF1 mice [6] is on record as “low toxicity”. Also, the oral resorption result with CFLP and BDF1 mice [6] (inferred from i.p. vs oral LD50) is “excellent oral resorption”. For the same molecule, the results for the cytostatic effect result in series [7] and in series [7] (listed as 1,6-dimesyl-3,4-dimethyl-D-mannitol) were “strong cytostatic effect” and “extremely potent cytostatic agent”, respectively. Further, the “cytostatic effect compared with Mannogranol, Myelobromol and Elobromol” value in series [7] is given as “even more effective”. Further, in [7] (solid tumors, even in very low dosages compared to the toxic one), the “inhibition of the growth of solid tumors” value is “significantly inhibits the growth of solid tumors”.

In the series with Yoshida sc. sarcoma (ip), `O[C@H]([C@H](O)[C@@H](O)CBr)[C@H](O)CBr` [1,6-dibromo-1,6-dideoxy-dulcitol] came in with an ED50 of 50 mg/kg. The Relative activity with Yoshida sc. sarcoma (i.p.) is listed as 0.4. The Inhibition in the series on Harding-Passey melanoma (200 mg/kg, 13 × i.p.) is on record as 67; in series [8] it was 95; in the series with S-180 sc. sarcoma [9] it was 57. Moreover, in the series with NK/Ly lymphoma [10], the “Prol. of life span” value is recorded as 90%. Further, the LD50 value is 900 mg/kg in the series with CFLP and BDF1 mice [11] (i.p.); 1500 mg/kg with CFLP and BDF1 mice [11] (p.o.). In addition, the “effect on haematopoiesis (formation of myeloid leukocytes)” value in series [1] is “rather strong and selective action on the formation of myeloid leukocytes”.

As for `CS(=O)(=O)OC[C@@H](O)[C@@H](O)[C@H](O)[C@H](O)COS(C)(=O)=O` [1,6-Dimesyl-D-mannitol (Mannogranol), 1,6-dimesyl-D-mannitol], the ED50 in the series with Yoshida sc. sarcoma (ip) turned out to be 500 mg/kg; in the series on Yoshida sc. sarcoma (po), 600 mg/kg.

Consider “1,6-dimesyl-1,6-dideoxy-D-mannitol [reference compound]”, for which the Inhibition in the series on S-180 sc. sarcoma [3] (300 mg/kg, 6 × i.p.) is given as 31. Further, in the series with S-180 sc. sarcoma [3] (500 mg/kg, 6 × i.p.), the “Inhibition (toxicity reported in this column)” value is recorded as “toxic”.

Values taken from patent US4235803A (priority 1978, dated 1980).
